Measured values reported in paper PMC11823609, “Advancements in the fight against globally distributed OXA-48 carbapenemase: evaluating the new generation of carbapenemase inhibitors” (Antimicrobial Agents and Chemotherapy, 2025).
≈ marks a conversion by molar mass, not a printed value. Where two headings read alike, the source gives them in different places.

Assays:
[1] = system: K. pneumoniae strain 497 (MLST 11, No ESBL); assay: microbe, parasite or virus in culture; format: cell-based; conditions: Klebsiella pneumoniae, K. pneumoniae 497, read-out: MIC
Procedure: (§1) The efficacy of these new BLIs was also evaluated against 18 genetically diverse WGS-characterized collection of OXA-48-positive Enterobacterales recovered as part of the Carbapenem-resistant Enterobacterales Genome Database Project (https://genomes.cnag.cat/incredble) listed in Table S2 ([13]). Combinations of clinical isolates (five pairs of Klebsiella pneumoniae, two pairs of Enterobacter cloacae, and two pairs of E. coli) were chosen for analysis: (i) nine strains carrying ESBLs; and (ii) nine strains (genetically closer available strains) without ESBLs.
(§2) The MICs of each of the individual compounds (antibiotics or inhibitors) were also determined. The MICs were determined for the E. coli isogenic expressing OXA-48 (and both OXA-48 and CTX-M-14) to assess their activity against the carbapenemase; MICs were also determined for the 18 Enterobacterales clinical isolates in order to evaluate the new inhibitors against also their resistance concomitant mechanisms. The MICs were determined in triplicate experiments, and the EUCAST 13.0 clinical breakpoints were followed (http://www.eucast.org/clinical_breakpoints).
(§3) For comparative evaluation of the activity of each inhibitor alone against the carbapenemase OXA-48, all inhibitors (at 4 mg/L) were tested in the presence of a carbapenem (ertapenem, adequate substrate) and a cephalosporin (ceftazidime, poor substrate) as reporter substrates. This prevented any possible masking effect produced by the different partner antibiotics. These assays were also performed with isogenic transformants and clinical isolates.

[2] = system: E. coli strain 224 (MLST 127, No ESBL); assay: microbe, parasite or virus in culture; format: cell-based; conditions: Escherichia coli, E. coli 224, read-out: MIC
Procedure: as §1, §2, §3

[3] = system: K. pneumoniae strain 413 (MLST 147, ESBL); assay: microbe, parasite or virus in culture; format: cell-based; conditions: Klebsiella pneumoniae
Procedure: as §1, §2, §3

[4] = system: K. pneumoniae strain 237 (MLST 147, No ESBL); assay: microbe, parasite or virus in culture; format: cell-based; conditions: Klebsiella pneumoniae, K. pneumoniae 237, read-out: MIC
Procedure: as §1, §2, §3

[5] = system: E. coli strain 177 (MLST 131, ESBL); assay: microbe, parasite or virus in culture; format: cell-based; conditions: Escherichia coli
Procedure: as §1, §2, §3

[6] = system: K. pneumoniae strain 170 (MLST 307, No ESBL); assay: microbe, parasite or virus in culture; format: cell-based; conditions: Klebsiella pneumoniae, K. pneumoniae 170, read-out: MIC
Procedure: as §1, §2, §3

[7] = system: K. pneumoniae strain 71 (MLST 15, No ESBL); assay: microbe, parasite or virus in culture; format: cell-based; conditions: Klebsiella pneumoniae, K. pneumoniae 71, read-out: MIC
Procedure: as §1, §2, §3

[8] = system: K. pneumoniae strain 194 (MLST 392, No ESBL); assay: microbe, parasite or virus in culture; format: cell-based; conditions: Klebsiella pneumoniae, K. pneumoniae 194, read-out: MIC
Procedure: as §1, §2, §3

[9] = system: K. pneumoniae strain 23 (MLST 392, ESBL); assay: microbe, parasite or virus in culture; format: cell-based; conditions: Klebsiella pneumoniae
Procedure: as §1, §2, §3

E. coli TG1 (OXA-48) = assay: microbe, parasite or virus in culture; format: cell-based, Escherichia coli; conditions: Escherichia coli
Procedure: as §2, §3

E. coli HB4 ΔompC/F = assay: microbe, parasite or virus in culture; format: cell-based, Escherichia coli; conditions: Escherichia coli
Description: (§4) The E. coli HB4 strain was used to gain a more complete perspective, by evaluating the involvement in resistance of a low permeability background with the carbapenemase OXA-48, as well as coproduction of an ESBL and the carbapenemase; thus, the ESBL CTX-M-14 and OXA-48 were cloned together and separately into E. coli HB4. The characteristics of these strains and transformants are summarized in Table S1, and the cloning procedures are outlined in the supplemental methods.
as §2, §3

E. coli TG1 = assay: microbe, parasite or virus in culture; format: cell-based; conditions: Escherichia coli
Procedure: as §2, §3

[10] = system: E. cloacae strain 272 (MLST 78, ESBL); assay: microbe, parasite or virus in culture; format: cell-based; conditions: Enterobacter cloacae
Procedure: as §1, §2, §3

[11] = system: E. coli strain 103 (MLST 10, ESBL); assay: microbe, parasite or virus in culture; format: cell-based; conditions: Escherichia coli
Procedure: as §1, §2, §3

[12] = system: E. coli strain 264 (MLST 131, No ESBL); assay: microbe, parasite or virus in culture; format: cell-based; conditions: Escherichia coli, E. coli 264, read-out: MIC
Procedure: as §1, §2, §3

[13] = system: E. cloacae strain 281 (MLST 78, No ESBL); assay: microbe, parasite or virus in culture; format: cell-based; conditions: Enterobacter cloacae, E. cloacae 281, read-out: MIC
Procedure: as §1, §2, §3

[14] = system: E. cloacae strain 235 (MLST 171, ESBL); assay: microbe, parasite or virus in culture; format: cell-based; conditions: Enterobacter cloacae
Procedure: as §1, §2, §3

[15] = system: K. pneumoniae strain 19 (MLST 11, ESBL); assay: microbe, parasite or virus in culture; format: cell-based; conditions: Klebsiella pneumoniae
Procedure: as §1, §2, §3

[16] = system: E. cloacae strain 231 (MLST 171, No ESBL); assay: microbe, parasite or virus in culture; format: cell-based; conditions: Enterobacter cloacae, E. cloacae 231, read-out: MIC
Procedure: as §1, §2, §3

[17] = system: K. pneumoniae strain 125 (MLST 307, ESBL); assay: microbe, parasite or virus in culture; format: cell-based; conditions: Klebsiella pneumoniae
Procedure: as §1, §2, §3

[18] = system: K. pneumoniae strain 238 (MLST 15, ESBL); assay: microbe, parasite or virus in culture; format: cell-based; conditions: Klebsiella pneumoniae
Procedure: as §1, §2, §3

[19] = system: E. coli HB4 ΔompC/F (CTX-M-14); assay: microbe, parasite or virus in culture; format: cell-based, Escherichia coli; conditions: Escherichia coli
Description: as §4, §2, §3

[20] = system: E. coli HB4 ΔompC/F (CTX-M-14 + OXA-48); assay: microbe, parasite or virus in culture; format: cell-based, Escherichia coli; conditions: Escherichia coli
Description: as §4, §2, §3

[21] = system: E. coli HB4 ΔompC/F (OXA-48); assay: microbe, parasite or virus in culture; format: cell-based, Escherichia coli; conditions: Escherichia coli
Description: as §4, §2, §3

[22] = system: OXA-48-producing Enterobacterales clinical isolates; assay: MIC summary over clinical isolates; format: cell-based
Procedure: as §1, §2, §3

[23] = BL alone or BL/BLI: AVI, REL, TAN, DUR 4 mg/L, VAB, XER 8 mg/L, ZID, NAC 1:1
[24] = ertapenem alone or with BLI at 4 mg/L

SMILES | MIC [1, 23] | MIC [2, 23] | MIC [3] | MIC [4, 23] | MIC [5] | MIC [6, 23] | MIC [7, 23] | MIC [8, 23] | MIC [9] | MIC (E. coli TG1 (OXA-48)) | MIC (E. coli HB4 ΔompC/F) | MIC [10] | MIC [11] | MIC [14] | MIC [15] | MIC [17] | MIC [18] | MIC [19] | MIC [20] | MIC [21] | other results
CO/N=C(\C(=O)N[C@@H]1C(=O)N2C(C(=O)[O-])=C(C[N+]3(C)CCCC3)CS[C@H]12)c1csc(N)n1 [FEP, cefepime] | 0.5 µg/mL | 0.5 µg/mL | 128 µg/mL | 0.5 µg/mL | ≥ 256 µg/mL | 0.25 µg/mL | 0.5 µg/mL | 0.25 µg/mL | 32 µg/mL | ≤ 0.06 µg/mL | 1 µg/mL (≈ 2.08 µM) | – | – | – | – | – | – | – | – | – | MIC (E. coli TG1; [23]): ≤ 0.06 µg/mL
C[C@@H](O)[C@H]1C(=O)N2C(C(=O)O)=C(S[C@@H]3CN[C@H](C(=O)Nc4cccc(C(=O)O)c4)C3)[C@H](C)[C@H]12 [ERT, ertapenem] | – | – | ≥ 256 µg/mL | – | 4 µg/mL | – | – | – | 4 µg/mL | 1 µg/mL (≈ 2.1 µM) | 0.12 µg/mL (≈ 0.252 µM) | 16 µg/mL | 4 µg/mL | ≥ 256 µg/mL | 4 µg/mL | 8 µg/mL | 4 µg/mL | 0.5 µg/mL (≈ 1.05 µM) | 32 µg/mL (≈ 67.3 µM) | 32 µg/mL (≈ 67.3 µM) | MIC [1, 24]: 8 µg/mL; MIC [12, 24]: 4 µg/mL; MIC [2, 24]: 2 µg/mL; MIC [13, 24]: 4 µg/mL; MIC [4, 24]: 4 µg/mL; MIC [6, 24]: 4 µg/mL; MIC [7, 24]: 8 µg/mL; MIC [16, 24]: 8 µg/mL; MIC [8, 24]: 4 µg/mL; MIC (E. coli TG1; [24]): ≤ 0.06 µg/mL
O=C(NC1CCNCC1)[C@@H]1CC[C@@H]2CN1C(=O)N2OS(=O)(=O)O [Relebactam, relebactam] | – | – | ≥ 128 µg/mL | – | ≥ 128 µg/mL | – | – | – | ≥ 128 µg/mL | 64 µg/mL (≈ 184 µM) | ≥ 128 µg/mL | ≥ 128 µg/mL | ≥ 128 µg/mL | ≥ 128 µg/mL | ≥ 128 µg/mL | ≥ 128 µg/mL | ≥ 128 µg/mL | ≥ 128 µg/mL | ≥ 128 µg/mL | ≥ 128 µg/mL | MIC ([1]; β-lactamase inhibitor alone): ≥ 128 µg/mL; MIC ([12]; β-lactamase inhibitor alone): ≥ 128 µg/mL; MIC ([2]; β-lactamase inhibitor alone): ≥ 128 µg/mL; MIC ([13]; β-lactamase inhibitor alone): ≥ 128 µg/mL; MIC ([4]; β-lactamase inhibitor alone): ≥ 128 µg/mL; MIC ([6]; β-lactamase inhibitor alone): ≥ 128 µg/mL; MIC ([7]; β-lactamase inhibitor alone): ≥ 128 µg/mL; MIC ([16]; β-lactamase inhibitor alone): ≥ 128 µg/mL; MIC ([8]; β-lactamase inhibitor alone): ≥ 128 µg/mL; MIC (E. coli TG1; β-lactamase inhibitor alone): 32 µg/mL (≈ 91.9 µM)
CC1(C)[C@H](C(=O)O)N2C(=O)C[C@H]2S1(=O)=O [SUL, sulbactam] | 128 µg/mL | 128 µg/mL | 128 µg/mL | 64 µg/mL | 64 µg/mL | 64 µg/mL | 128 µg/mL | 64 µg/mL | 128 µg/mL | 32 µg/mL (≈ 137 µM) | 32 µg/mL (≈ 137 µM) | 128 µg/mL | 64 µg/mL | ≥ 256 µg/mL | 64 µg/mL | 64 µg/mL | 128 µg/mL | 32 µg/mL (≈ 137 µM) | 64 µg/mL (≈ 274 µM) | 64 µg/mL (≈ 274 µM) | MIC [12, 23]: 64 µg/mL; MIC [13, 23]: 128 µg/mL; MIC [16, 23]: 64 µg/mL; MIC [22]: ≥ 64 µg/mL; MIC (E. coli TG1; [23]): 32 µg/mL (≈ 137 µM)
C[C@@H](O)[C@H]1C(=O)N2C(C(=O)O)=C(SCCN=CN)C[C@H]12 [IMP, imipenem] | 4 µg/mL | 2 µg/mL | 16 µg/mL | 2 µg/mL | 2 µg/mL | 4 µg/mL | 2 µg/mL | 2 µg/mL | 4 µg/mL | 0.12 µg/mL (≈ 0.401 µM) | ≤ 0.06 µg/mL | 2 µg/mL | 2 µg/mL | ≥ 256 µg/mL | 1 µg/mL | 4 µg/mL | 2 µg/mL | 0.25 µg/mL (≈ 0.835 µM) | 16 µg/mL (≈ 53.4 µM) | 16 µg/mL (≈ 53.4 µM) | MIC [12, 23]: 0.5 µg/mL; MIC [13, 23]: 8 µg/mL; MIC [16, 23]: 2 µg/mL; MIC (E. coli TG1; [23]): ≤ 0.06 µg/mL
C[C@@H](O)[C@H]1C(=O)N2C(C(=O)O)=C(S[C@@H]3CN[C@H](C(=O)N(C)C)C3)[C@H](C)[C@H]12 [MER, meropenem] | 1 µg/mL | 0.5 µg/mL | 16 µg/mL | 1 µg/mL | 0.5 µg/mL | 1 µg/mL | 2 µg/mL | 2 µg/mL | 1 µg/mL | ≤ 0.06 µg/mL | 0.12 µg/mL (≈ 0.313 µM) | 1 µg/mL | 0.25 µg/mL | 128 µg/mL | 1 µg/mL | 2 µg/mL | 1 µg/mL | 0.5 µg/mL (≈ 1.3 µM) | 32 µg/mL (≈ 83.4 µM) | 32 µg/mL (≈ 83.4 µM) | MIC [12, 23]: 1 µg/mL; MIC [13, 23]: 1 µg/mL; MIC [16, 23]: 1 µg/mL; MIC (E. coli TG1; [23]): ≤ 0.06 µg/mL
